Measurements: patent US12440502B2, “Use of thyroid beta-agonists” (priority 2016, dated 2025)

Experiments:
[1] = system: X-ALD fibroblast cell lines; experiment: Cell health (proliferation, morphology, death) of treated X-ALD fibroblasts; type: cell-based, human; details: for cell survival of X-ALD cell lines: 100 μM, two X-ALD cell lines; for proliferation and morphology of cells: after 72 hours
Procedure: Human primary fibroblasts. Human skin fibroblasts were obtained from X-ALD patients through the Neurology Outpatient Clinic of the Academic Medical Center. Written informed consent was received from each patient. X-ALD diagnosis was confirmed by VLCFA and ABCD1 mutation analysis. Control fibroblasts were obtained from male anonymous volunteers with written informed consent. Fibroblasts were cultured in Dulbecco's modified Eagle's medium (DMEM) with L-glutamine and 4.5 g/L glucose, supplemented with 10% fetal calf serum, 2.5 mM HEPES, 100 U/ml penicillin and 100 U/ml streptomycin. Cells were cultured at 37° C. in a humidified 5% CO2 atmosphere. All fibroblast cell lines used were tested routinely for mycoplasma. All tests were negative.
Preparation of stock solutions. 10 mM stock solutions in DMSO were prepared by weighing the amount of compound (1 and 3 and their respective active metabolites, 2 and 4) as indicated in Table 2. Stock solutions were stored at room temperature in the dark. For each incubation, the amount of tissue culture medium needed was calculated and a stock solution of tissue culture medium with the final concentration of the to-be-tested compound was prepared. Tissue culture medium was removed from the cells, cells were washed once with PBS and the tissue culture medium with the compounds was added. If an experiment lasted longer than three days, the tissue culture medium and compounds were refreshed (using a fresh preparation) after three days until the end of the experiment.
Two different X-ALD fibroblast cell lines were incubated in duplicate with four compounds at three dosages as highlighted in Table 3.
4 X-ALD cell lines were incubated with 10 μM of 4 compounds 1, 2, 3, and 4. The effect of treatment on ABCD2 expression was analyzed at day 3 and day 10. For the 10 day incubation, tissue culture medium and compounds were refreshed at day 3 and day 6.

ABCD1−/− mice [2] = experiment: Whole blood VLCFA-LPC levels in an in vivo model of X-ALD; set-up: species or system mouse; details: for C26:0-LPC Difference in Mean Change from Baseline / C26:0-LPC % Difference versus Vehicle: initial cohort, whole blood; for Least Squares Mean Change from Baseline Whole Blood C26:0-LPC Levels: second cohort, daily IP
Procedure: (§1) Animals. Male ABCD1−/− mice were developed using the Taconic 129SvEv background strain. Animals were housed 3-4/cage under a 12-hour lighting cycle (7 AM-7 PM light) and controlled temperature (22° C.) in the rodent facility. They were fed standard mouse chow and had access to drinking water ad libitum. Mice were between 2 and 3 months of age at the beginning of each study.
(§2) Study Protocol. Mice were injected once daily intraperitoneal with either drug or vehicle. For blood collection, ˜50 μL of blood was obtained by facial vein puncture using a sterile lancet. Blood was collected in a 1.5 ml microcentrifuge tube containing dried dipotassium EDTA and mixed by gentle inversion at least ten times before storing at −20° C. Blood was obtained in this manner following two, four, and six weeks of treatment. Following blood collection at six weeks, animals were sacrificed by cervical dislocation. Additional blood for preparation of plasma was obtained via cardiac puncture, and blood placed in Microtainer tubes. Brain, spinal cord, adrenal glands, testis, and liver were excised and snap frozen in liquid nitrogen for future analyses.
An initial cohort of 16 mice were randomized 3:1 to receive compound 3 or placebo, once daily for six weeks. […] Treated animals continued to experience progressive declines in C26:0-LPC through six weeks.
(§3) Based on the encouraging results of the initial cohort, a second, larger, cohort was evaluated. A total of 20 mice were randomized 1:1 to receive daily compound 3 or vehicle, by IP administration, for six weeks.

ABCD1−/− mice [3] = experiment: Plasma VLCFA-LPC levels in an in vivo model of X-ALD (second cohort); set-up: species or system mouse
Procedure: as §1, §2, §3
During the second cohort study, blood was obtained as described in the Methods section. At the six week time point sufficient blood was collected to permit plasma VLCFA analyses at weeks two, four and six. Plasma is considered by many to be a more reliable measurement of VLCFA levels, because of reduced analytical interference from other analytes, as well as reduced variability of the measurements.

X-ALD cell lines [4] = experiment: De novo D3-C26:0 synthesis from D3-C22:0 in intact X-ALD cells; type: cell-based, human; details: 10 day treatment, 5 X-ALD cell lines
Procedure: The effect of treatment on D3-C26:0 synthesis in intact cells. The effect of certain compounds of the invention on the synthesis of D3-C26:0 from D3-C22:0 was measured in cultured skin fibroblasts from controls and X-ALD patients. Cells were seeded at approximately 40% confluency in T75 flasks in DMEM. The next day, medium was replaced with medium containing 30 μM D3-C22:0 and the assayed compounds at their final concentration. […] Each 72 h, the tissue culture medium and compounds was refreshed. At the end of the experiment cells were harvested and VLCFA analyzed as described (Valianpour et al., Molecular Genetics and Metabolism, 79: 189-196 (2003)).
(§4) VLCFA measurement. VLCFA were analyzed by electrospray ionization mass spectrometry (ESI-MS) as described (Valianpour et al., Molecular Genetics and Metabolism, 79: 189-196 (2003)).
(§5) 5 different X-ALD cell lines were incubated for 6 days with compounds 1, 2, 3, and 4 at 10 μM, 5 mM 4PBA (sodium 4-phenylbutyrate), or 0.1 μM sobetirome. On Day 6, 30 μM D3C22:0 was added to assess the effect of treatment on beta-oxidation and de novo D3C26:0 synthesis. 6 untreated control cells as well as 5 different untreated X-ALD cells were included to allow assessment of the treatment effect. The total set consisted of 41 experiments

X-ALD cell lines [5] = experiment: D3-C22:0 (VLCFA) beta-oxidation in intact X-ALD cells; type: cell-based, human; details: 0.1 μM; 10 day treatment; 5 X-ALD cell lines
Procedure: The effect of treatment on D3-C22:0 beta-oxidation in intact cells. Peroxisomal beta-oxidation activity was measured essentially as described by incubating cells with 30 μM deuterium-labeled C22:0 (D3-C22:0) (Kemp et al., Clinical Chemistry 50: 1824-1826 (2004)). Cells were seeded at approximately 40% confluency in T75 flasks in DMEM. The next day, medium was replaced with medium containing 30 μM D3-C22:0 and assayed compounds at their final concentration. […] Each 72 h, the tissue culture medium and compounds was refreshed. At the end of the experiment cells were harvested and VLCFA analyzed as described (Valianpour et al., Molecular Genetics and Metabolism, 79: 189-196 (2003)).
as §4, §5

Cc1cc(OC[P@@]2(=O)OCC[C@@H](c3cccc(Cl)c3)O2)cc(C)c1Cc1ccc(O)c(C(C)C)c1 [Compound 1]
cell survival of X-ALD cell lines [1]: dead within 24 hours
proliferation and morphology of cells ([1]; 0.1 or 10 μM): looked healthy

Cc1cc(OCP(=O)(O)O)cc(C)c1Cc1ccc(O)c(C(C)C)c1 [Compound 2]
proliferation and morphology of cells ([1]; 0.1, 1 or 10 μM): looked healthy

Cc1cc(OCP(=O)(OCOC(=O)C(C)(C)C)OCOC(=O)C(C)(C)C)cc(C)c1Cc1ccc(O)c(Cc2ccccc2)c1 [Compound 3]
cell survival of X-ALD cell lines [1]: dead within 24 hours
proliferation and morphology of cells ([1]; 0.1 or 10 μM): looked healthy
C20:0-, C22:0-, and C24:0-LPC levels (ABCD1−/− mice [2]; after six weeks of treatment): significant reductions
C26:0-LPC Difference in Mean Change from Baseline (ABCD1−/− mice [2]; week 2): -0.052 µM
C26:0-LPC % Difference versus Vehicle (ABCD1−/− mice [2]; week 2, p NS): 0%
C26:0-LPC Difference in Mean Change from Baseline (ABCD1−/− mice [2]; week 4): -0.081 µM
C26:0-LPC % Difference versus Vehicle (ABCD1−/− mice [2]; week 4, p NS): −11%
C26:0-LPC % Difference versus Vehicle (ABCD1−/− mice [2]; week 6, p<0.0001): −40%
Least Squares Mean Change from Baseline Whole Blood C26:0-LPC Levels (ABCD1−/− mice [2]; week 2, p NS versus vehicle): -0.021 µM
Least Squares Mean Change from Baseline Whole Blood C26:0-LPC Levels (ABCD1−/− mice [2]; week 4, p<0.01 versus vehicle): -0.096 µM
Least Squares Mean Change from Baseline Whole Blood C26:0-LPC Levels (ABCD1−/− mice [2]; week 6, p<0.005 versus vehicle): -0.12 µM
Plasma C20:0-LPC % Difference vs. Vehicle (ABCD1−/− mice [3]; week 6, p<0.0001): −54%
Plasma C22:0-LPC % Difference vs. Vehicle (ABCD1−/− mice [3]; week 6, p<0.0001): −43%
Plasma C26:0-LPC % Difference vs. Vehicle (ABCD1−/− mice [3]; week 6, p<0.0001): −29%
Plasma C24:0-LPC % Difference vs. Vehicle (ABCD1−/− mice [3]; week 6, p<0.005): −21%

O=C([O-])CCCc1ccccc1.[Na+] [Compound 4PBA, sodium 4-phenylbutyrate]
VLCFA synthesis (X-ALD cell lines [4]; 5 mM): near normal levels

Cc1cc(OCP(=O)(O)O)cc(C)c1Cc1ccc(O)c(Cc2ccccc2)c1 [Compound 4]
proliferation and morphology of cells ([1]; 0.1, 1 or 10 μM): looked healthy

Cc1cc(OCC(=O)O)cc(C)c1Cc1ccc(O)c(C(C)C)c1 [sobetirome]
effect on VLCFA beta-oxidation (X-ALD cell lines [5]): did not show any beneficial effect
effect on VLCFA de novo synthesis (X-ALD cell lines [4]; 0.1 μM): did not show any beneficial effect
